In patent US8202910B2 (Sequella, Inc., priority 2006, dated 2012):
In brackets after ≈: the same amount, converted by molar mass. Where two headings read alike, the source gives them in different places.

Tests used:
MDR Strain TN576 = assay: microbe, parasite or virus in culture; type: cell-based, Mycobacterium tuberculosis; conditions: for Drug Resistance of MDR Strain: 576 W1; for MIC: Mycobacterium tuberculosis
MDR strain TN587 = assay: microbe, parasite or virus in culture; type: cell-based, Mycobacterium tuberculosis; conditions: for Drug Resistance of MDR Strain: 587 W; for MIC: Mycobacterium tuberculosis
MDR strain TN3086 (3806) = assay: microbe, parasite or virus in culture; type: cell-based, Mycobacterium tuberculosis; conditions: for MIC: Mycobacterium tuberculosis; for Drug Resistance of MDR Strain: 3806 W1
EMB-resistant strain = assay: microbe, parasite or virus in culture; type: cell-based, M. tuberculosis; conditions: Mycobacterium tuberculosis
[1] = system: M. tuberculosis clinical isolates (drug susceptible and drug resistant); type: cell-based; conditions: more than 30 clinical isolates
INH-resistant MTB strain = assay: microbe, parasite or virus in culture; type: cell-based, M. tuberculosis; conditions: Mycobacterium tuberculosis

Compound: O=C(O)c1cn(C2CC2)c2cc(N3CCNCC3)c(F)cc2c1=O [Cip, Ciprofloxacin]
- Drug Resistance of MDR Strain (MDR Strain TN576): S
- Drug Resistance of MDR Strain (MDR strain TN587): S

Compound: C[C@@H]1[C@H]2C[C@@H](C[C@H]1NCCNC1CCCCCCC1)C2(C)C [Compound 59, N-(Cyclooctyl)-N′-(1R, 2R, 3R, 5S)-(−)-isopinocampheylethane-1,2-diamine]
- MIC (MDR Strain TN576; strain 576): 0.1 µg/mL
- MIC (MDR strain TN587; TN587, strain 587): 0.05 µg/mL
- MIC (MDR strain TN3086 (3806); strain 3806): 0.05 µg/mL

Compound: CC(C)=CCC/C(C)=C/CNCCNC1C2CC3CC(C2)CC1C3 (stereo not drawn) [Compound 109, N-Geranyl-N′-(2-adamanthyl)ethane-1,2-diamine]
- MIC (MDR Strain TN576; strain 576): 0.2 µg/mL
- MIC (MDR strain TN587; TN587, strain 587): 0.2 µg/mL
- MIC (EMB-resistant strain): 0.5 µg/mL (≈ 1.51 µM)
- MIC (MDR strain TN3086 (3806); strain 3806): 0.1 µg/mL
- MIC range [1]: 0.16 to 0.64 µg/mL
- MIC (INH-resistant MTB strain): 0.25 µg/mL (≈ 0.756 µM)

Compound: N[C@@H]1CON=C1O [Cyc, Cycloserine]
- Drug Resistance of MDR Strain (MDR Strain TN576): S
- Drug Resistance of MDR Strain (MDR strain TN587): S

Compound: CC[C@@H](CO)NCCN[C@@H](CC)CO [EMB, Ethambutol, reference compound]
- Drug Resistance of MDR Strain (MDR Strain TN576): R
- MIC (MDR Strain TN576; read-out: MIC of ethambutol, MDR strain, TN576): 12.5 to 25 µM
- Drug Resistance of MDR Strain (MDR strain TN587): R
- MIC (MDR strain TN587; TN587, read-out: MIC of ethambutol, MDR strain, TN587): 12.5 to 25 µM
- Drug Resistance of MDR Strain (MDR strain TN3086 (3806)): R
- MIC (MDR strain TN3086 (3806); read-out: MIC of ethambutol, MDR strain, TN3086): 12.5 to 25 µM

Compound: CCc1cc(C(N)=S)ccn1 [Eth, Ethionamide]
- Drug Resistance of MDR Strain (MDR Strain TN576): R
- Drug Resistance of MDR Strain (MDR strain TN587): S
- Drug Resistance of MDR Strain (MDR strain TN3086 (3806)): S

Compound: NNC(=O)c1ccncc1 [INH, Isoniazid]
- Drug Resistance of MDR Strain (MDR Strain TN576): R
- Drug Resistance of MDR Strain (MDR strain TN587): R
- Drug Resistance of MDR Strain (MDR strain TN3086 (3806)): R

Compound: NC[C@H]1O[C@H](O[C@H]2[C@H](O)[C@@H](O[C@H]3O[C@H](CO)[C@@H](O)[C@H](N)[C@H]3O)[C@H](N)C[C@@H]2N)[C@H](O)[C@@H](O)[C@@H]1O [Kan, Kanamycin]
- Drug Resistance of MDR Strain (MDR Strain TN576): R
- Drug Resistance of MDR Strain (MDR strain TN587): R
- Drug Resistance of MDR Strain (MDR strain TN3086 (3806)): R

Compound: CC1(C)CC2CC(C)(CN2CCNC[C@@H]2CCC3C[C@@H]2C3(C)C)C1 [MP 116]
- MIC (MDR Strain TN576; strain 576): 3.15 µg/mL
- MIC (MDR strain TN587; TN587, strain 587): 6.25 µg/mL
- MIC (MDR strain TN3086 (3806); strain 3806): 3.15 µg/mL

Compound: C[C@@H]1C2C[C@@H](C[C@H]1NCCNC[C@@H]1CCC3C[C@@H]1C3(C)C)C2(C)C [MP 117]
- MIC (MDR Strain TN576; strain 576): 3.15 µg/mL
- MIC (MDR strain TN587; TN587, strain 587): 3.15 µg/mL
- MIC (MDR strain TN3086 (3806); strain 3806): 3.15 µg/mL

Compound: CO[C@H]1/C=C/O[C@@]2(C)Oc3c(C)c(O)c4c(O)c(c(/C=N/N5CCN(C)CC5)c(O)c4c3C2=O)NC(=O)/C(C)=C\C=C\[C@H](C)[C@H](O)[C@@H](C)[C@@H](O)[C@@H](C)[C@H](OC(C)=O)[C@@H]1C [RIF, Rifampicin]
- Drug Resistance of MDR Strain (MDR Strain TN576): R
- Drug Resistance of MDR Strain (MDR strain TN587): R
- Drug Resistance of MDR Strain (MDR strain TN3086 (3806)): R

Compound: CC1(C)C2CCC(CNCCNCC(c3ccccc3)c3ccccc3)[C@@H]1C2 (stereo partly drawn) [RL 241]
- MIC (MDR Strain TN576; strain 576): 1.5 µg/mL
- MIC (MDR strain TN587; TN587, strain 587): 1.5 µg/mL
- MIC (MDR strain TN3086 (3806); strain 3806): 1.5 µg/mL

Compound: [H]/N=C(/N)N[C@H]1[C@H](O)[C@@H](O)[C@H](O[C@@H]2O[C@@H](C)[C@](O)(C=O)[C@H]2O[C@@H]2O[C@@H](CO)[C@H](O)[C@@H](O)[C@@H]2NC)[C@@H](N/C(N)=N\[H])[C@@H]1O [SM, Streptomycin]
- Drug Resistance of MDR Strain (MDR Strain TN576): R
- Drug Resistance of MDR Strain (MDR strain TN587): R
- Drug Resistance of MDR Strain (MDR strain TN3086 (3806)): R

Compound: Capreomycin
- Drug Resistance of MDR Strain (MDR Strain TN576): R
- Drug Resistance of MDR Strain (MDR strain TN587): S
